Results on one molecule are retold here after patent publication EP0270317A2, “Pharmaceutical compositions for the treatment of diseases caused by viruses” (Kabushiki Kaisha Ueno Seiyaku Oyo Kenkyujo, priority 1986, dated 1988).

This test deals with HTLV-III. As to the kind of experiment: inhibition of viral infection, MT-4 cells infected with HTLV-III, time course (Example 18). In kind it is cell-based. Particulars: sole use of 10 nM AZT or 5 µg/ml dextran sulfate; day 9. As to the method: AIDS virus HTLV-III was challenged to established human T-lymphocyte culture cells MT-4 and the cell suspension and virus particles were incubated at 37°C for 1 hour. The cells were then washed with phosphate buffered saline once and cultured with or without various doses of the test substances in RPMI-1640 medium at 37°C under 5 % CO₂ in an incubator.
MT-4 cells infected with HTLV-III were destructed as the virus proliferated, resulting in decrease of viable cells. Prior to the cytolysis by viral cytopathic effect, the cells infected with HTLV-III which were detectable by indirct immuno fluorescence method appeared. On day 12, number of the living cells was counted to know the extent of infection, and rate of the infected cells was determined by indirect immuno-fluorescence method using an antibody having specificity to the virus specific antigen. As the test substances, 3ʹ-azido-3ʹ-deoxythymidine (AZT) and dextran sulfate(M.W. 7000 - 8000, S-content 17 - 20%) (DS) were used.
In the same procedure as in Expample 7, the MT-4 cells infected with HTLV-III were cultured in medium and the changes in the number of viable cells and the rate of the infected cells were recorded in time course. […]

Consider `Cc1cn([C@H]2C[C@H](N=[N+]=[N-])[C@@H](CO)O2)c(=O)[nH]c1=O` [AZT, 3ʹ-azido-3ʹ-deoxythymidine], for which the infection stood at 100%.
